Data on 4 compounds can be found in patent publication EP0319576B1, “PROSTAGLANDIN DERIVATIVES, PROCESSES FOR PREPARING THEM AND PHARMACEUTICAL COMPOSITIONS CONTAINING SAID DERIVATIVES” (IBI- Istituto Biochimico Italiano Giovanni Lorenzini S.p.A., priority 1987, dated 1988).

The structures appear in SMILES notation.

The subject of data set [1] is Acetyl salicyl-ic acid + HCl. Briefly: Cytoprotective activity in the rat, acetylsalicylic acid + HCl. The data set is classed as in vivo. As to conditions: read-out: Cytoprotective activity DE50, Acetyl salicyl-ic acid + HCl. Here is the method:
(§1) iv) Cytoprotective activity in the rat
(§2) The tests were carried out according to what has been described in literature: • 1 (A.Robert et al. Gastroenterology, 77, 433 (1979)) (Table 4) • 2 (Szabo et al. Sciene 214 (200) (1981)) (Table 4)

The test system of data set [2] is NaOH (2) 0.2 N. Briefly: Cytoprotective activity in the rat, NaOH 0.2 N. In kind it is in vivo. As to conditions: read-out: Cytoprotective activity DE50, NaOH (2) 0.2 N. The procedure:
as §1, §2

A short description of data set [3]: Oral LD50 in the rat. As to conditions: in vivo.
The test system of data set [4] is NaCl (2) 25%. Briefly: Cytoprotective activity in the rat, NaCl 25%. In kind it is in vivo. As to conditions: read-out: Cytoprotective activity DE50, NaCl (2) 25%. The procedure: as §1, §2
In data set [5] the test system is Ethanol (1) +NEM. Briefly: Cytoprotective activity in the rat, Ethanol + NEM. The data set is classed as in vivo. Conditions: read-out: Cytoprotective activity DE50, Ethanol (1) +NEM. Here is the method:
as §1, §2

As a reminder, the LD50 is the dose at which mortality reaches 50%.

Turning to `CCCCCCC1CCCC(N)C1CCCCCCC(=O)O` (centres unmarked) [IBI-P-05006, 3-hexyl-2-(6-carboxy-hexyl)-cyclohexyl-amine], the ED50 in data set [1] is greater than 200 mg/kg; in data set [2] it was 9 mg/kg; in data set [4] it was 25 mg/kg; in data set [5] it was 20 mg/kg. Further, the LD50 in data set [3] is 3000 mg/kg.
Taken in the same sequence, the figures for `CCCCCC1C(N)CCC1CCCCCCCCO` (centres unmarked) [IBI-P-10007, 2-pentyl-3-(8-hydroxy-octyl)-cyclopentyl amine] were 165 mg/kg, 4 mg/kg, 4 mg/kg, 8 mg/kg and 3000 mg/kg.
Consider `CCCCCCC1CCC(N)C1CCCCCCC(OCC)OCC` (centres unmarked) [IBI-P-01053, 3-hexyl-2-(6-diethoxymethyl-hexyl)-cyclopentyl amine], for which the ED50 in data set [1] came to 252 mg/kg; in data set [2] it was 6 mg/kg; in data set [4] it was 17 mg/kg; in data set [5], 7 mg/kg. Also, in data set [3], the LD50 was determined as 3000 mg/kg.
`CCCCCCC1CCC2(NC(=O)NC2=O)C1CCCCCCC(=O)O` (centres unmarked) [IBI-P-01028, 5-spiro-[2-(6-carboxy-ethyl)-3-hexyl-cyclopentyl]-imidazoline-2,4-dione]: the ED50 turned out to be 78 mg/kg in data set [1], 18 mg/kg in data set [2], 15 mg/kg in data set [4] and 30 mg/kg in data set [5]. Besides, the LD50 in data set [3] is 2000 mg/kg.
